Experimental data from US20230301885A1, “NOVEL USE” (DSM IP ASSETS B.V., priority 2020, published 2023).

How the values were obtained:
[1] = system: S. epidermidis; assay: Microbiome balance model, S. epidermidis/S. aureus co-culture: S. epidermidis; type: cell-based, Staphylococcus epidermidis; settings: co-culture with S. aureus; for CSE4h counts of colony of S. epidermidis / CSE4h share of S. epidermidis: after 4 hours of incubation at 37° C.; for CSE0 share of S. epidermidis / CSE0 counts of colony of S. epidermidis: directly after inoculation; for CSE0 counts of colony of S. epidermidis: 500 µL of 2 wt.-% in PBS in 5 mL TSB
Procedure: (§1) The term ‘share’ as used herein refers to the share of each (individual) microbe, based on the total number of microbes in the respective group of microbes in % (i.e. the at least two, preferably all dry or sebaceous skin microbes as defined herein, respectively S. epidermidis and ), either before or after inoculation (as indicated). The share is calculated using the colony count of the respective (individual) microbe divided by the sum of the colony counts of all microbes of the respective microbiota * 100%.
(§2) 5 mL of TSB (Tryptic Say Broth) to which no (Ref.1) or 500 µL of 2 wt.-% of 1,3-propanediol (1,3-PDO) in PBS (Phosphate-buffered saline) have been added. Then this solutions have been inoculated by 500 µL of the respective calibrated mixture of the microbes as outlined below. Directly after inoculation and/or after 4 hours of incubation at 37° C., 100 µL have been taken and plated on an Agar gel petri dish. The microbes have then been counted based on the colony specific morphology and/or size.
(§3) All shares have been rounded.

[2] = system: S. aureus; assay: Microbiome balance model, S. epidermidis/S. aureus co-culture: S. aureus; type: cell-based, Staphylococcus aureus; settings: co-culture with S. epidermidis; for CSA4h counts of colony of S. aureus / CSA4h share of S. aureus: after 4 hours of incubation at 37° C.; for CSA0 share of S. aureus / CSA0 counts of colony of S. aureus: directly after inoculation; for CSA0 counts of colony of S. aureus: 500 µL of 2 wt.-% in PBS in 5 mL TSB
Procedure: as §1, §2, §3

[3] = system: C. acnes; assay: Microbiome balance model, sebaceous skin mixture: C. acnes; type: cell-based, Cutibacterium acnes; settings: 4 h at 37° C.
Procedure: (§4) Thus, in particular the term ‘by not unproportionally affecting the growth of anyone thereof’ refers to a balancing of at least two, preferably all dry skin or sebaceous skin microbes as defined herein in the mutual presence thereof, wherein only small changes in the difference in the (individual) shares of the microbes compared to the corresponding shares of the control are observed. Preferably, the small changes in the (individual) share (after 4 h of incubation at 37° C.) is less than ±15%, in particular less than ±10%, most in particular less than ±7.5%, compared to the control. Said change in the share is calculated as: share of the respective microbe within the group of at least two, preferably all microbes of dry or sebaceous skin in the presence of 1,3-PDO [%] minus share of the same microbe within the same group of microbes in the absence of 1,3-PDO [%], both after 4 h of incubation at 37° C. as illustrated in the example.
(§5) The ‘not unproportionally affected growth’ can also be assessed by determining an overall impact value, by • (1) assessing the impact of the ingredient on the individual microbe (i) and assigning an individual impact value x′(i) to said microbe as outlined below: • [formula] • If x(i) is • a) ≤ 0.1 then an integer x′(i) of 1 is assigned (no impact) • b) >0.1 ≤ 0.5then an integer x′(i) of 2 is assigned (slight impact) • c) > 0.5 then an integer x′(i) of 3 is assigned (significant impact), followed by • (2) assessing the overall effect of the ingredient on the respective microbiome by calculating the overall impact value y with formula (II) • [formula] • with n being the total number of microbes in the respective microbiota, wherein a good balancing is characterized by an overall impact value y of less than 2, preferably less than 1.75, most preferably less than 1.7.
as §2, §3

[4] = system: S. epidermidis; assay: Microbiome balance model, sebaceous skin mixture: S. epidermidis; type: cell-based, Staphylococcus epidermidis; settings: for S. epidermidis change in share vs control / S. epidermidis counts of colony / S. epidermidis share / S. epidermidis valuation, impact value x(i)′: 4 h at 37° C.
Procedure: as §4, §5, §2, §3

[5] = system: S. hominis; assay: Microbiome balance model, sebaceous skin mixture: S. hominis; type: cell-based, Staphylococcus hominis; settings: for S. hominis counts of colony / S. hominis share / S. hominis valuation, impact value x(i)′: 4 h at 37° C.
Procedure: as §4, §5, §2, §3

[6] = system: S. capitis; assay: Microbiome balance model, sebaceous skin mixture: S. capitis; type: cell-based, Staphylococcus capitis; settings: 4 h at 37° C.
Procedure: as §4, §5, §2, §3

[7] = system: S. mitis; assay: Microbiome balance model, sebaceous skin mixture: S. mitis; type: cell-based, Streptococcus mitis; settings: 4 h at 37° C.
Procedure: as §4, §5, §2, §3

[8] = system: C.simulans; assay: Microbiome balance model, sebaceous skin mixture: C. simulans; type: cell-based, Corynebacterium simulans; settings: 4 h at 37° C.
Procedure: as §4, §5, §2, §3

[9] = system: M. globosa; assay: Microbiome balance model, sebaceous skin mixture: M. globosa; type: cell-based, Malassezia globosa; settings: 4 h at 37° C.
Procedure: as §4, §5, §2, §3

[10] = system: microbes of sebaceous skin; assay: Microbiome balance model, sebaceous skin mixture: total of all microbes; type: cell-based; settings: 4 h at 37° C.
Procedure: (§6) Preferably, the difference in total number of said at least two, preferably all microbes, compared to the respective total number in the absence of 1,3-propanediol (i.e. the control), after 4 h of incubation at 37° C., is within a range of ±50%, preferably ±40%, more preferably ±15%, most preferably ±10%.
as §5, §2, §3

[11] = system: C. tuberculostearicum; assay: Microbiome balance model, dry skin mixture: C. tuberculostearicum; type: cell-based, Corynebacterium tuberculostearicum; settings: 4 h at 37° C.
Procedure: as §4, §5, §2, §3

[12] = system: P. acnes; assay: Microbiome balance model, dry skin mixture: P. acnes; type: cell-based, Cutibacterium acnes; settings: 4 h at 37° C.
Procedure: as §4, §5, §2, §3

[13] = system: S. mitis; assay: Microbiome balance model, dry skin mixture: S. mitis; type: cell-based, Streptococcus mitis; settings: 4 h at 37° C.
Procedure: as §4, §5, §2, §3

[14] = system: S. oralis; assay: Microbiome balance model, dry skin mixture: S. oralis; type: cell-based, Streptococcus oralis; settings: 4 h at 37° C.
Procedure: as §4, §5, §2, §3

[15] = system: M. luteus; assay: Microbiome balance model, dry skin mixture: M. luteus; type: cell-based, Micrococcus luteus; settings: 4 h at 37° C.
Procedure: as §4, §5, §2, §3

[16] = system: M. globosa; assay: Microbiome balance model, dry skin mixture: M. globosa; type: cell-based, Malassezia globosa; settings: 4 h at 37° C.
Procedure: as §4, §5, §2, §3

[17] = system: microbes of dry skin; assay: Microbiome balance model, dry skin mixture: total of all microbes; type: cell-based; settings: 4 h at 37° C.
Procedure: as §6, §5, §2, §3

[18] = system: S. aureus; settings: known; cited from earlier work
[19] = system: E. coli; settings: known; cited from earlier work

1,3-Propanediol [1,3-PDO]
CSE4h counts of colony of S. epidermidis [1]: 170 CFU/ml
CSE4h share of S. epidermidis [1]: 77%
CSE0 share of S. epidermidis [1]: 89%
CSE0 counts of colony of S. epidermidis [1]: 235 CFU/ml
share of S. epidermidis, effect in words ([1]; t = 0 vs t = 4 h): significantly altered
CSA4h counts of colony of S. aureus [2]: 50 CFU/ml
CSA4h share of S. aureus [2]: 23%
CSA0 share of S. aureus [2]: 11%
CSA0 counts of colony of S. aureus [2]: 30 CFU/ml
C. acnes change in share vs control [3]: +1%^1
C. acnes counts of colony [3]: 2664 CFU/ml
C. acnes share [3]: 25%
C. acnes valuation, impact value x(i)′ [3]: 1^3 (≤ 0.1 then an integer x′(i) of 1 is assigned (no impact))
growth of S. epidermidis compared to the control, in words [4]: increased
S. epidermidis change in share vs control [4]: +5%^1
S. epidermidis counts of colony [4]: 2255 CFU/ml
S. epidermidis share [4]: 21%
S. epidermidis valuation, impact value x(i)′ [4]: 2^3 (>0.1 ≤ 0.5then an integer x′(i) of 2 is assigned (slight impact))
growth of S. hominis compared to the control, in words [5]: increased
S. hominis counts of colony [5]: 373 CFU/ml
S. hominis share [5]: 3%
S. hominis valuation, impact value x(i)′ [5]: 1^3 (≤ 0.1 then an integer x′(i) of 1 is assigned (no impact))
S. capitis counts of colony [6]: 664 CFU/ml
S. capitis share [6]: 6%
S. capitis valuation, impact value x(i)′ [6]: 2^3 (>0.1 ≤ 0.5then an integer x′(i) of 2 is assigned (slight impact))
S. mitis change in share vs control [7]: -2%^1
S. mitis counts of colony [7]: 1300 CFU/ml
S. mitis share [7]: 12%
S. mitis valuation, impact value x(i)′ [7]: 2^3 (>0.1 ≤ 0.5then an integer x′(i) of 2 is assigned (slight impact))
C.simulans counts of colony [8]: 627 CFU/ml
C.simulans share [8]: 6%
C.simulans valuation, impact value x(i)′ [8]: 1^3 (≤ 0.1 then an integer x′(i) of 1 is assigned (no impact))
M. globosa change in share vs control [9]: -4%^1
M. globosa counts of colony [9]: 2900 CFU/ml
M. globosa share [9]: 27%
M. globosa valuation, impact value x(i)′ [9]: 2^3 (>0.1 ≤ 0.5then an integer x′(i) of 2 is assigned (slight impact))
Change of total CFU/ml vs control [10]: -7%^2
Total counts of colony [10]: 10783 CFU/ml
Total share [10]: 100%
overall impact value y [10]: 1.6^4
C. tuberculostearicum change in share vs control [11]: -1%^1
C. tuberculostearicum counts of colony [11]: 909 CFU/ml
C. tuberculostearicum share [11]: 4%
C. tuberculostearicum valuation, impact value x(i)′ [11]: 1^3 (≤ 0.1 then an integer x′(i) of 1 is assigned (no impact))
P. acnes change in share vs control [12]: -4%^1
P. acnes counts of colony [12]: 3200 CFU/ml
P. acnes share [12]: 15%
P. acnes valuation, impact value x(i)′ [12]: 1^3 (≤ 0.1 then an integer x′(i) of 1 is assigned (no impact))
S. mitis change in share vs control [13]: +6%^1
S. mitis counts of colony [13]: 6600 CFU/ml
S. mitis share [13]: 31%
S. mitis valuation, impact value x(i)′ [13]: 3^3 (> 0.5 then an integer x′(i) of 3 is assigned (significant impact))
S. oralis change in share vs control [14]: +5%^1
S. oralis counts of colony [14]: 5700 CFU/ml
S. oralis share [14]: 27%
S. oralis valuation, impact value x(i)′ [14]: 3^3 (> 0.5 then an integer x′(i) of 3 is assigned (significant impact))
M. luteus change in share vs control [15]: -1%^1
M. luteus counts of colony [15]: 873 CFU/ml
M. luteus share [15]: 4%
M. luteus valuation, impact value x(i)′ [15]: 1^3 (≤ 0.1 then an integer x′(i) of 1 is assigned (no impact))
M. globosa change in share vs control [16]: -6%^1
M. globosa counts of colony [16]: 3800 CFU/ml
M. globosa share [16]: 18%
M. globosa valuation, impact value x(i)′ [16]: 1^3 (≤ 0.1 then an integer x′(i) of 1 is assigned (no impact))
Change of total CFU/ml vs control [17]: +38%^2
Total counts of colony [17]: 21082 CFU/ml
overall impact value [17]: 1.7^4
antimicrobial effect on S. aureus [18]: antimicrobial effect
antimicrobial effect on E. coli [19]: antimicrobial effect

CCCC(O)CO (stereo not shown) [pentylene glycol, 1,2-pentanediol, reference compound]
CSE4h counts of colony of S. epidermidis [1]: 3200 CFU/ml
CSE4h share of S. epidermidis [1]: 55%
CSE0 share of S. epidermidis [1]: 80%
CSE0 counts of colony of S. epidermidis [1]: 1100 CFU/ml
share of S. aureus, effect in words ([2]; 4 hours of incubation): not reduced
CSA4h counts of colony of S. aureus [2]: 3900 CFU/ml
CSA4h share of S. aureus [2]: 45%
CSA0 share of S. aureus [2]: 20%
CSA0 counts of colony of S. aureus [2]: 280 CFU/ml
C. acnes change in share vs control [3]: -19.5%^1
C. acnes counts of colony [3]: 2000 CFU/ml
C. acnes share [3]: 20%
C. acnes valuation, impact value x(i)′ [3]: 3^3 (> 0.5 then an integer x′(i) of 3 is assigned (significant impact))
S. epidermidis change in share vs control [4]: +17%^1
S. epidermidis counts of colony [4]: 3300 CFU/ml
S. epidermidis share [4]: 32%
S. epidermidis valuation, impact value x(i)′ [4]: 3^3 (> 0.5 then an integer x′(i) of 3 is assigned (significant impact))
S. hominis counts of colony [5]: 2100 CFU/ml
S. hominis share [5]: 21%
S. hominis valuation, impact value x(i)′ [5]: 2^3 (>0.1 ≤ 0.5then an integer x′(i) of 2 is assigned (slight impact))
S. capitis counts of colony [6]: 1100 CFU/ml
S. capitis share [6]: 11%
S. capitis valuation, impact value x(i)′ [6]: 3^3 (> 0.5 then an integer x′(i) of 3 is assigned (significant impact))
S. mitis change in share vs control [7]: +0.5%^1
S. mitis counts of colony [7]: 380 CFU/ml
S. mitis share [7]: 4%
S. mitis valuation, impact value x(i)′ [7]: 2^3 (>0.1 ≤ 0.5then an integer x′(i) of 2 is assigned (slight impact))
C.simulans change in share vs control [8]: -3%^1
C.simulans counts of colony [8]: 450 CFU/ml
C.simulans share [8]: 4%
C.simulans valuation, impact value x(i)′ [8]: 2^3 (>0.1 ≤ 0.5then an integer x′(i) of 2 is assigned (slight impact))
M. globosa change in share vs control [9]: +1%^1
M. globosa counts of colony [9]: 830 CFU/ml
M. globosa share [9]: 8%
M. globosa valuation, impact value x(i)′ [9]: 2^3 (>0.1 ≤ 0.5then an integer x′(i) of 2 is assigned (slight impact))
Change of total CFU/ml vs control [10]: +2.60%^2
Total counts of colony [10]: 10160 CFU/ml
Total share [10]: 100%
overall impact value y [10]: 2.4^4
share of the microbes of sebaceous skin, effect in words ([10]; in contrast to 1,3-propanediol): alter the share of the microbes of sebaceous skin to a greater extend
